Data taken from article PMC8284440, “Toward New Transmission-Blocking Combination Therapies: Pharmacokinetics of 10-Amino-Artemisinins and 11-Aza-Artemisinin and Comparison with Dihydroartemisinin and Artemether” (Antimicrobial Agents and Chemotherapy, 2021).
Like-named read-outs stand apart in the source and are kept apart here.

Experiments:
[1] = Plasma protein binding (ultracentrifugation); assay type: in vitro ADME; conditions: pooled plasma, human plasma, read-out: Plasma protein binding fu
Method: (iii) Plasma protein binding. Plasma protein binding was measured using an ultracentrifugation method. The assay was performed using a 96-well microtiter plate with pooled human plasma spiked with the test compound (10 μM). […] This served as the total concentration sample. After preincubation at 37°C for 1 h, duplicate aliquots of the spiked plasma were transferred to ultracentrifugation tubes and ultracentrifuged for 4 h (216,937 × g, 37°C, Beckman Optima L-80XP). […] Sample extraction. […] LC-MS/MS analysis.

[2] = Pharmacokinetics in mice, intravenous administration; assay type: in vivo, male C57/BL6 mice; conditions: for AUC: 0 h to last, parent; for V: volume of distribution during elimination phase; for half-life / CLint scaled / clearance: male; for half-life: C57/BL6, iv, mouse plasma; for CLint scaled / clearance: C57/BL6, mouse, plasma, iv; for clearance: read-out: CLtot; for DHA detected as a metabolite: mouse PK studies, i.v. and p.o., LC-MS/MS
Method: (i) Animals. Healthy male C57/BL6 mice each weighing approximately 25 g were used. The mice maintained at the University of Cape Town animal facility were housed in 27 by 21 by 18 cm cages, under controlled environmental conditions at 22 ± 2°C and a 12-h light/dark cycle. Humidity was monitored and ranged between 55 and 70%. Food and water were available ad libitum. Mice were acclimatized to their environment for 7 days before experiments were initiated.
(iii) Intravenous drug administration. For the intravenous formulations, each of artemether, the amino-artemisinins 5 to 10, and 11-aza-artemisinin 11 (2.5 mg) was dissolved in 1 ml DMSO/PEG/PPG (1:3:6, vol/vol). DMSO was added first, followed by PEG and then PPG. The resulting solutions in the mixture of DMSO, PEG, and PPG (1:3:6, vol/vol) were administered intravenously at a dose of 10 mg/kg (n = 3) via injection into the dorsal penile vein. Mice were anesthetized with an intraperitoneal injection of a saline ketamine/xylazine solution. This consisted of 1 ml ketamine (100 mg/ml), 0.5 ml xylazine (20 mg/ml), and 8.5 ml PBS solution to make a total volume of 10 ml. Dosage of anesthetic preparation for mice was […]; this amounts to a dose of 80 mg/kg ketamine and 10 mg/kg xylazine. The total volume of administration was dose adjusted to 10 mg/kg with an approximate volume of 80 μl, according to the weight of each animal on the morning of dosing. Blood samples for the amino-artemisinins 5 to 8 and 10 were collected via tail-bleeding predose and at 0.08, 0.25, 0.5, 1, 2, and 4 h, and blood samples for the phenylurea 9 and 11-aza-artemisinin 11 were collected at 0.08, 0.5, 1, 2, 4, 8, and 24 h postdose. Samples were all placed in 0.5 ml lithium heparin microvials to prevent blood coagulation. The samples were immediately centrifuged at 5,590 × g for 5 min and the plasma was transferred to new microvials. The plasma samples were stored at −80°C.
Sample extraction. […] The organic layer was then transferred and evaporated under a gentle stream of nitrogen at room temperature for 30 min. The dried samples were reconstituted in mobile phase, and a 5 μl sample was injected for LC-MS/MS analysis. The only exception was the arylurea 10, for which no liquid-liquid extraction was conducted; instead, the 200 μl acetonitrile solution was evaporated under a gentle stream of nitrogen at room temperature. The dried sample was reconstituted in the mobile phase, and a 5 μl sample was injected for LC-MS/MS analysis. The plasma samples for each compound from the in vivo studies were extracted by mixing 350 μl ethyl acetate with 15 μl of plasma sample and 35 μl of universal buffer containing internal standard at pH 8. The samples were vortexed for 1 min and centrifuged for 5 min, and the organic layer was then transferred and evaporated under a gentle stream of nitrogen at room temperature for 30 min. The dried samples were each reconstituted in the mobile phase, and a 5 μl sample was injected for LC-MS/MS analysis.
LC-MS/MS analysis. For all the artemisinins except the arylurea 10, gradient chromatography was performed on a Phenomenex (Torrance, CA, USA) Luna PFP(2) analytical column (100 Å, 5 μm, 2 by 50 mm) and an AB Sciex API 5500 mass spectrometer which was operated at unit resolution in the multiple reaction monitoring (MRM) mode. The HPLC method used was a gradient method with 5 mM ammonium acetate and 0.1% acetic acid in water as the aqueous phase and a mixture of acetonitrile and methanol (1:1 vol/vol) containing 5% of the aqueous phase as the organic phase ([89]). The arylurea 10 was analyzed using a Phenomenex Gemini NX-C18 (5 μm, 2.1 mm by 50 mm) column with an AB Sciex 3200 QTRAP mass spectrometer operated at unit resolution in the MRM mode. The HPLC method used was a gradient method with 5 mM ammonium acetate and 0.1% acetic acid in water as the aqueous phase and a mixture of acetonitrile and methanol (1:1 vol/vol).

[3] = tested on: early stage (>90% stage I-III) P. falciparum NF54 gametocytes; conditions: cited from earlier work
[4] = 10 mg/kg, i.v. 10 mg/kg, total plasma clearance
[5] = Table S4, ± SEM, n = 3, ref 4 (supplement; main text 62), read-out: Early stage IC50 (Luciferase 48 h)
[6] = Table S3, ± SEM, ref 1 and 2 (supplement; main text 47, 48), read-out: Early Stage (EG, Luc 48 h) IC50
[7] = metabolite formed from i.v. artemiside 5, 10 mg/kg

AUC of metabolite ([2]; metabolite formed from i.v. artemisone, 10 mg/kg) [min/µmol/L] | Compound | fraction unbound at 4 h, 10 µM [1] | AUC ([2]; i.v. 10 mg/kg) [min/µmol/L] | V ([2]; i.v. 10 mg/kg) [L/kg] | half-life ([2]; i.v. 10 mg/kg) [h] | CLint scaled ([2]; 10 mg/kg) [mL/min/kg] | clearance [2, 4] [mL/min/kg] | DHA detected as a metabolite ([2]; listed as 11-Aza-artemisinin) | DHA detected as a metabolite ([2]; listed as 11-aza-artemisinin) | IC50 [3, 5] [nM] | CLtot ([2]; i.v. 10 mg/kg, total plasma clearance, 10 mg/kg) [mL/min/kg] | DHA detected as a metabolite [2] | IC50 [3, 6] [nM] | AUC of metabolite [2, 7] [min/µmol/L] | AUC of metabolite ([2]; metabolite formed from i.v. artemether 3, 10 mg/kg) [min/µmol/L]
– | C[C@@H]1CC[C@H]2[C@@H](C)C(=O)N[C@@H]3O[C@@]4(C)CC[C@@H]1[C@]32OO4 [11-Aza-artemisinin 11, 11-aza-artemisinin] | 0.13 | 462.7 ± 117 | 19.4 ± 7.5 | 3.1 ± 0.8 | 577 | 75 ± 8.9 | could not be detected | not detected | 170 | – | – | – | – | –
– | CO[C@H]1O[C@@H]2O[C@@]3(C)CC[C@H]4[C@H](C)CC[C@@H]([C@H]1C)[C@@]24OO3 [Artemether 3, artemether] | 0.14 | 304.4 ± 80 | 14.1 ± 1.3 | 1.4 ± 0.2 | 855 | 120 ± 39 | – | – | 37.7 ± 2.08 | – | – | – | – | –
– | C[C@H]1[C@H](N2CCSCC2)O[C@@H]2O[C@@]3(C)CC[C@H]4[C@H](C)CC[C@@H]1[C@@]24OO3 [Artemiside 5, artemiside] | 0.23 | 184.9 ± 43 | 24.3 ± 9.3 | 1.8 ± 0.5 | 674 | 130 | – | – | – | 155.0 ± 46.4 | not detected | 16.4 ± 1 | – | –
– | C[C@H]1[C@H](N2CCS(=O)(=O)CC2)O[C@@H]2O[C@@]3(C)CC[C@H]4[C@H](C)CC[C@@H]1[C@@]24OO3 [Artemisone 6, artemisone] | 0.14 | 577.5 ± 30 | 1.9 ± 0.1 | 0.5 ± 0.03 | 302 | 42.3 ± 2.1 | – | – | – | – | not detected | 1.94 | 28.9 ± 1 | –
– | C[C@H]1[C@H](N2CCN(C(=O)Nc3ccc(F)cc3)CC2)O[C@@H]2O[C@@]3(C)CC[C@H]4[C@H](C)CC[C@@H]1[C@@]24OO3 [Arylurea 10] | 0.02 | 315.9 ± 33 | 6.92 ± 2.9 | 1.3 ± 0.3 | 2940 | 58.9 ± 3.5 | – | – | – | – | – | 36 ± 10.2 | – | –
– | C[C@H]1[C@@H](O)O[C@@H]2O[C@@]3(C)CC[C@H]4[C@H](C)CC[C@@H]1[C@@]24OO3 [DHA 2, dihydroartemisinin] | – | – | – | – | – | – | – | – | – | – | – | 43 ± 3.9 | – | 155 ± 17
60.6 ± 36 | C[C@H]1[C@H](N2C=CS(=O)(=O)CC2)O[C@@H]2O[C@@]3(C)CC[C@H]4[C@H](C)CC[C@@H]1[C@@]24OO3 [M1 12] | 0.25 | – | – | – | – | – | – | – | – | – | – | – | 13.8 ± 9 | –
– | C[C@H]1[C@H](NS(N)(=O)=O)O[C@@H]2O[C@@]3(C)CC[C@H]4[C@H](C)CC[C@@H]1[C@@]24OO3 [Sulfamide 7] | 0.17 | 864.1 ± 213 | 1.63 ± 0.4 | 0.6 ± 0.1 | 189 | 32.2 ± 6.2 | – | – | – | – | not detected | 15 ± 2 | – | –
